According to the kinase profiling compilation of Christmann-Franck et al. (2016):

How the values were obtained:
Experiment in all cases: radiometric filter-binding kinase assay, Kinase HotSpot
ACVR1 (human) = ACVR1 (human) (UniProt Q04771); conditions: compound 0.5 µM; ATP 10 µM
ADRBK1 (human) = ADRBK1 (human) (UniProt P25098); conditions: compound 0.5 µM; ATP 10 µM
AURKC (human) = AURKC (human) (UniProt Q9UQB9); conditions: compound 0.5 µM; ATP 10 µM
BMX (human) = BMX (human) (UniProt P51813); conditions: compound 0.5 µM; ATP 10 µM
BTK (human) = BTK (human) (UniProt Q06187); conditions: compound 0.5 µM; ATP 10 µM
CDK1 CCNA2 (human) = CDK1 CCNA2 (human) (UniProt P06493+P20248); conditions: compound 0.5 µM
DAPK1 (human) = DAPK1 (human) (UniProt P53355); conditions: compound 0.5 µM; ATP 10 µM
DDR2 (human) = DDR2 (human) (UniProt Q16832); conditions: compound 0.5 µM; ATP 10 µM
DYRK1B (human) = DYRK1B (human) (UniProt Q9Y463); conditions: compound 0.5 µM; ATP 10 µM
EGFR (human) = EGFR (human) (UniProt P00533); conditions: compound 0.5 µM; ATP 10 µM
EPHA5 (human) = EPHA5 (human) (UniProt P54756); conditions: compound 0.5 µM; ATP 10 µM
EPHA8 (human) = EPHA8 (human) (UniProt P29322); conditions: compound 0.5 µM; ATP 10 µM
FGFR1 (human) = FGFR1 (human) (UniProt P11362); conditions: compound 0.5 µM; ATP 10 µM
FLT3 (human) = FLT3 (human) (UniProt P36888); conditions: compound 0.5 µM; ATP 10 µM
FRK (human) = FRK (human) (UniProt P42685); conditions: compound 0.5 µM; ATP 10 µM
FYN (human) = FYN (human) (UniProt P06241); conditions: compound 0.5 µM; ATP 10 µM
GRK5 (human) = GRK5 (human) (UniProt P34947); conditions: compound 0.5 µM; ATP 10 µM
HIPK1 (human) = HIPK1 (human) (UniProt Q86Z02); conditions: compound 0.5 µM; ATP 10 µM
IKBKE (human) = IKBKE (human) (UniProt Q14164); conditions: compound 0.5 µM; ATP 10 µM
INSRR (human) = INSRR (human) (UniProt P14616); conditions: compound 0.5 µM; ATP 10 µM
IRAK1 (human) = IRAK1 (human) (UniProt P51617); conditions: compound 0.5 µM; ATP 10 µM
LCK (human) = LCK (human) (UniProt P06239); conditions: compound 0.5 µM; ATP 10 µM
MAP3K2 (human) = MAP3K2 (human) (UniProt Q9Y2U5); conditions: compound 0.5 µM; ATP 10 µM
MAP3K8 (human) = MAP3K8 (human) (UniProt P41279); conditions: compound 0.5 µM; ATP 10 µM
MARK3 (human) = MARK3 (human) (UniProt P27448); conditions: compound 0.5 µM; ATP 10 µM
NEK6 (human) = NEK6 (human) (UniProt Q9HC98); conditions: compound 0.5 µM; ATP 10 µM
PDPK1 (human) = PDPK1 (human) (UniProt O15530); conditions: compound 0.5 µM; ATP 10 µM
PRKCG (human) = PRKCG (human) (UniProt P05129); conditions: compound 0.5 µM; ATP 10 µM
PRKCZ (human) = PRKCZ (human) (UniProt Q05513); conditions: compound 0.5 µM; ATP 10 µM
PRKD2 (human) = PRKD2 (human) (UniProt Q9BZL6); conditions: compound 0.5 µM; ATP 10 µM
RPS6KA3 KD1 KD2 (human) = RPS6KA3 KD1 KD2 (human) (UniProt P51812); conditions: compound 0.5 µM; ATP 10 µM
RPS6KB1 (human) = RPS6KB1 (human) (UniProt P23443); conditions: compound 0.5 µM; ATP 10 µM
TAOK1 (human) = TAOK1 (human) (UniProt Q7L7X3); conditions: compound 0.5 µM; ATP 10 µM
TEK (human) = TEK (human) (UniProt Q02763); conditions: compound 0.5 µM; ATP 10 µM
BRAF (human) = BRAF (human) (UniProt P15056); conditions: compound 0.5 µM; ATP 10 µM

Sequence of MAP3K2 (human) (Q9Y2U5 whole entry, looked up): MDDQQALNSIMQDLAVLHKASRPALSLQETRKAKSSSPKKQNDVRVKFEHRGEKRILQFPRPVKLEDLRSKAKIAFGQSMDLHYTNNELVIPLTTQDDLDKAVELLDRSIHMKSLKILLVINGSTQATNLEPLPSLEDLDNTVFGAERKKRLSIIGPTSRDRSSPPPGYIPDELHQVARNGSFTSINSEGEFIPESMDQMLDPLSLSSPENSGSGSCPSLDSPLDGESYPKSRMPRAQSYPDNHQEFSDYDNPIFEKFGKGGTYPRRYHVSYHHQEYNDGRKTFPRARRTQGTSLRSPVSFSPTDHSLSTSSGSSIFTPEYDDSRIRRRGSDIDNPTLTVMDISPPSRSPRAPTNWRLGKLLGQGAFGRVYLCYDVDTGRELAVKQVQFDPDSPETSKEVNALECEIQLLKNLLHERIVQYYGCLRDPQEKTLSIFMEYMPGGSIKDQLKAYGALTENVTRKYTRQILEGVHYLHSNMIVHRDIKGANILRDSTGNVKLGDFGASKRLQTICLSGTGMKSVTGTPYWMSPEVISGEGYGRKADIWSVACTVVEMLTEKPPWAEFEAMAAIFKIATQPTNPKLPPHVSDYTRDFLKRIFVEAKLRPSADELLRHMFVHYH
Sequence of MAP3K8 (human) (P41279 whole entry, looked up): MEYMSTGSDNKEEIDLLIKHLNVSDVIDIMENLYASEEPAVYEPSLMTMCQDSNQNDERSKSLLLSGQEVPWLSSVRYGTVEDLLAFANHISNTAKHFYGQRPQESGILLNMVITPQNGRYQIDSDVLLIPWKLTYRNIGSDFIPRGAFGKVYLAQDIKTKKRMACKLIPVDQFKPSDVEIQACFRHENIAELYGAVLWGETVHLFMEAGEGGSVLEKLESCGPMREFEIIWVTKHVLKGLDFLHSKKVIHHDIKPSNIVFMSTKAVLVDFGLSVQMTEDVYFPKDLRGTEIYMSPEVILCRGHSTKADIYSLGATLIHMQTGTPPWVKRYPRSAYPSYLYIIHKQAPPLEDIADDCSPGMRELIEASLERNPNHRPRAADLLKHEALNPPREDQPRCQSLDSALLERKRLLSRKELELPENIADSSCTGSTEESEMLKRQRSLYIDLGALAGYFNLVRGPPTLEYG
Sequence of EPHA5 (human) (P54756 whole entry, looked up): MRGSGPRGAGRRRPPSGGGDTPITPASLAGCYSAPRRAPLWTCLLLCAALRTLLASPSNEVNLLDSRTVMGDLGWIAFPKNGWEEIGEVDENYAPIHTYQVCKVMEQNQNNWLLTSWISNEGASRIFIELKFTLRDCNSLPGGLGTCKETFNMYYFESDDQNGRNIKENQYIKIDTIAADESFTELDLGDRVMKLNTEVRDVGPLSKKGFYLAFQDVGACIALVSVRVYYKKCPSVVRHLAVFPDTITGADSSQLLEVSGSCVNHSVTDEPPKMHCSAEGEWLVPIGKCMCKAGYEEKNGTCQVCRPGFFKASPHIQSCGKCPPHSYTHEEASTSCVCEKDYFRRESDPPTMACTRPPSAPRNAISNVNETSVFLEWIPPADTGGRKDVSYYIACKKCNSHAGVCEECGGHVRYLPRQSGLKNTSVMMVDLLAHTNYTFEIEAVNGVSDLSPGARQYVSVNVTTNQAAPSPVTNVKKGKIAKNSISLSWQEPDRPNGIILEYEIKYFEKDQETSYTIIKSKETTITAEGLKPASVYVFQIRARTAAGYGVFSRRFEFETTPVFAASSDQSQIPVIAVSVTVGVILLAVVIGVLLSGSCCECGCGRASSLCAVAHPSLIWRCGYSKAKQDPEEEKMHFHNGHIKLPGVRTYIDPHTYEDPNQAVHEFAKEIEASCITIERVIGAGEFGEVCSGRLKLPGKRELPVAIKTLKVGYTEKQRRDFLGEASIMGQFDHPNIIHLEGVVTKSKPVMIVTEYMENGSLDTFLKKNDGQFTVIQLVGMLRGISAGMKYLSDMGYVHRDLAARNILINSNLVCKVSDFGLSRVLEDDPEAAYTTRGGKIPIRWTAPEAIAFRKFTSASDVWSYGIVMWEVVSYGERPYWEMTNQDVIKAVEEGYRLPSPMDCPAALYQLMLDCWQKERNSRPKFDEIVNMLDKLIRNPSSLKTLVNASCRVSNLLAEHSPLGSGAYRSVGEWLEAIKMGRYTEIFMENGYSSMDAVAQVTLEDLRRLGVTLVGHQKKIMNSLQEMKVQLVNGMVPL
Sequence of DDR2 (human) (Q16832 whole entry, looked up): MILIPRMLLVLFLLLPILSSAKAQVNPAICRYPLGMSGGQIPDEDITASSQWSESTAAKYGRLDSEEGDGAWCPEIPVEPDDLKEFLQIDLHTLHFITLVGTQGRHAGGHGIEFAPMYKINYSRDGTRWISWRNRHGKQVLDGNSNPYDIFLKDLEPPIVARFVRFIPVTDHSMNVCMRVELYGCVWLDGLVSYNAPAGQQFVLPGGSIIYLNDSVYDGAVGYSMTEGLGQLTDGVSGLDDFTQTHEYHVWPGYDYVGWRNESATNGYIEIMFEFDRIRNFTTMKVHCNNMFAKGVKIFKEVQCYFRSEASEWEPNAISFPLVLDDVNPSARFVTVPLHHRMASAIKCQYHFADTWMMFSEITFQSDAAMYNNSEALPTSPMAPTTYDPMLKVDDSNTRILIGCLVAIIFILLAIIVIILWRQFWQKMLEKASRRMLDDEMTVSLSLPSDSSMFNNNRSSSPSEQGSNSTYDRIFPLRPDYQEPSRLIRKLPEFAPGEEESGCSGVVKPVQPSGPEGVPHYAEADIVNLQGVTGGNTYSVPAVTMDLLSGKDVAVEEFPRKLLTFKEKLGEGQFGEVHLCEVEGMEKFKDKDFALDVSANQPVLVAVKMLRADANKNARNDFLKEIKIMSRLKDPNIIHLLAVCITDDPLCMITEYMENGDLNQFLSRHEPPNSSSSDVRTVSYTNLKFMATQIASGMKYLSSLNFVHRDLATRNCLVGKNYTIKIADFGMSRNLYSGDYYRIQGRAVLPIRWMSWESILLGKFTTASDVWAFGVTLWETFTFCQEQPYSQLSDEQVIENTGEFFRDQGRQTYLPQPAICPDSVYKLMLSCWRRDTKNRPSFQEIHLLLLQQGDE
Sequence of HIPK1 (human) (Q86Z02 whole entry, looked up): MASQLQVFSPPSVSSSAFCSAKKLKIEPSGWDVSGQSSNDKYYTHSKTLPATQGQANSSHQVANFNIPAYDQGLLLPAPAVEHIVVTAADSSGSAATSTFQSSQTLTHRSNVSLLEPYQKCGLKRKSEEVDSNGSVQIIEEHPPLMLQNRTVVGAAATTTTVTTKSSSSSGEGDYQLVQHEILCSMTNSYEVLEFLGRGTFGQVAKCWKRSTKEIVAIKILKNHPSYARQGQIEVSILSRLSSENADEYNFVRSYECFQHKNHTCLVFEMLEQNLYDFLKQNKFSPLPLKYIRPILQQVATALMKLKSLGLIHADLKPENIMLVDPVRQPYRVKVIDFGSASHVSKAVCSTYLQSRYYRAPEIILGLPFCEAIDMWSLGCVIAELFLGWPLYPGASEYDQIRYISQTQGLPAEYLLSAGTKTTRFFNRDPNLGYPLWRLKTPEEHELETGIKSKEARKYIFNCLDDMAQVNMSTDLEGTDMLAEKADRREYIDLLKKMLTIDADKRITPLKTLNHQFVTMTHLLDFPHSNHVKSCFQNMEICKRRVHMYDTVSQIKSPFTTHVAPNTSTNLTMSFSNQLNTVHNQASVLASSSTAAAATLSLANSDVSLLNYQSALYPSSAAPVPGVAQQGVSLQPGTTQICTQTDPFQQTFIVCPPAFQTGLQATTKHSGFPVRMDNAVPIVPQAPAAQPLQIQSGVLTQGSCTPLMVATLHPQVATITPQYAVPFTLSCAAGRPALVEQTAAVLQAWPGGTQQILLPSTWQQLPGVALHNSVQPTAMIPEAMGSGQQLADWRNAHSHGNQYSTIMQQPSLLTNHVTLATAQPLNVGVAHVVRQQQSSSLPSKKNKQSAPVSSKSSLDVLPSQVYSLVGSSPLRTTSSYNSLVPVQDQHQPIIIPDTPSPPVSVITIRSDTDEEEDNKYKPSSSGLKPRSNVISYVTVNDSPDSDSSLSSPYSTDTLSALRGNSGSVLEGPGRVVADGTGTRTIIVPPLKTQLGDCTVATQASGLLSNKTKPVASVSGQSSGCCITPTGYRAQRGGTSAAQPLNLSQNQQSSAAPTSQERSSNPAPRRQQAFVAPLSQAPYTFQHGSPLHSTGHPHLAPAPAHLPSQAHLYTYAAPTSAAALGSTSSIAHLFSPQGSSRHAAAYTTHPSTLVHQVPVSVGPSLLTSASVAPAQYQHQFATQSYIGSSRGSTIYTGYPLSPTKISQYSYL
Sequence of LCK (human) (P06239 whole entry, looked up): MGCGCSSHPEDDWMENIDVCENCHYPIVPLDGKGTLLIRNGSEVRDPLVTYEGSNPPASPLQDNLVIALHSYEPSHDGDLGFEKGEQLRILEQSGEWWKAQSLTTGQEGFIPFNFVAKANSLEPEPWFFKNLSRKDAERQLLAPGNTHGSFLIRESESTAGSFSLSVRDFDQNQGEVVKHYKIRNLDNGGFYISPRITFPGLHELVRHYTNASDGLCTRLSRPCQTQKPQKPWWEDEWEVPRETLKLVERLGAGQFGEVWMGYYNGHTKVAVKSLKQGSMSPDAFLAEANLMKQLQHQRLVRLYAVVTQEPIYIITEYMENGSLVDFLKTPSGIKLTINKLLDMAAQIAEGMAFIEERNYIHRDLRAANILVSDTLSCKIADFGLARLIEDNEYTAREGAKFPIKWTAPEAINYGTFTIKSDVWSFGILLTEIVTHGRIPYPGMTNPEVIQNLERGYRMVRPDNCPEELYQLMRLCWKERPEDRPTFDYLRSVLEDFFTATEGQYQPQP
Sequence of AURKC (human) (Q9UQB9 whole entry, looked up): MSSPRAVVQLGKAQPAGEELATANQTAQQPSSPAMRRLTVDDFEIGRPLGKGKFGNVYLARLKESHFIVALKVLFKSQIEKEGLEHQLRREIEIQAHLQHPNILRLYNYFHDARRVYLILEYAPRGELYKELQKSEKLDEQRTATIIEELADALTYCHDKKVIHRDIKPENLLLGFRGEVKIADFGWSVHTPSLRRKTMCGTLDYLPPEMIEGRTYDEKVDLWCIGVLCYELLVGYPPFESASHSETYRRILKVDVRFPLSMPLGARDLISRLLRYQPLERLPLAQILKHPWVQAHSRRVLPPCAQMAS

Compound	residual activity (ACVR1 (human)) [%]	residual activity (ADRBK1 (human)) [%]	residual activity (AURKC (human)) [%]	residual activity (BMX (human)) [%]	residual activity (BTK (human)) [%]	residual activity (DAPK1 (human)) [%]	residual activity (DDR2 (human)) [%]	residual activity (DYRK1B (human)) [%]	residual activity (EGFR (human)) [%]	residual activity (EPHA5 (human)) [%]	residual activity (EPHA8 (human)) [%]	residual activity (FGFR1 (human)) [%]	residual activity (FLT3 (human)) [%]	residual activity (FRK (human)) [%]	residual activity (FYN (human)) [%]	residual activity (GRK5 (human)) [%]	residual activity (HIPK1 (human)) [%]	residual activity (IKBKE (human)) [%]	residual activity (INSRR (human)) [%]	residual activity (IRAK1 (human)) [%]	other results
O=C1NC(=O)c2c1c1c3ccccc3[nH]c1c1[nH]c3cc(Br)ccc3c21	127	97.6	51.9	92	74.8	73.5	91.8	82.8	100	90.5	102	85.3	8.19	93.9	95.2	97	98.2	83.4	85.8	81.8	residual activity (CDK1 CCNA2 (human); ATP 10 µM): 91.9%; residual activity (LCK (human)): 88.9%; residual activity (MAP3K2 (human)): 100%; residual activity (MAP3K8 (human)): 89%; residual activity (MARK3 (human)): 57.3%; residual activity (NEK6 (human)): 104%; residual activity (PDPK1 (human)): 66.1%; residual activity (PRKCG (human)): 76.6%; residual activity (PRKCZ (human)): 91.8%; residual activity (PRKD2 (human)): 45.9%; residual activity (RPS6KA3 KD1 KD2 (human)): 46.3%; residual activity (RPS6KB1 (human)): 45.2%; residual activity (TAOK1 (human)): 68.4%; residual activity (TEK (human)): 93.8%
COc1cc2ncnc(Nc3ccc(O)c(Br)c3)c2cc1OC	128	99	83.7	95.3	85.5	92	119	91.3	2.22	72.3	88.3	93.4	6.34	74.7	80.4	101	104	94.6	96.8	75.5	residual activity (CDK1 CCNA2 (human); ATP 10 µM): 101%; residual activity (LCK (human)): 48.9%; residual activity (MAP3K2 (human)): 92.4%; residual activity (MAP3K8 (human)): 97.6%; residual activity (MARK3 (human)): 98.8%; residual activity (NEK6 (human)): 100%; residual activity (PDPK1 (human)): 96.6%; residual activity (PRKCG (human)): 94.1%; residual activity (PRKCZ (human)): 93%; residual activity (PRKD2 (human)): 69.7%; residual activity (RPS6KA3 KD1 KD2 (human)): 69.4%; residual activity (RPS6KB1 (human)): 82.1%; residual activity (TAOK1 (human)): 93.3%; residual activity (TEK (human)): 93.8%
N#CCCc1ccc2c(c1)-c1[nH]c3ccc([N+](=O)[O-])cc3c1CC(=O)N2	58.8	96.4	83.6	99.5	94.6	96.5	105	76.8	94.4	88.5	105	91.9	15.1	92.7	52.2	103	97.9	89.2	99.2	74.9	residual activity (BRAF (human)): 99.3%; residual activity (CDK1 CCNA2 (human); ATP 10 µM): 24.8%; residual activity (LCK (human)): 78.2%; residual activity (MAP3K2 (human)): 61.5%; residual activity (MAP3K8 (human)): 87.5%; residual activity (MARK3 (human)): 67.3%; residual activity (NEK6 (human)): 101%; residual activity (PDPK1 (human)): 79.8%; residual activity (PRKCG (human)): 93.3%; residual activity (PRKCZ (human)): 83.4%; residual activity (PRKD2 (human)): 94.2%; residual activity (RPS6KA3 KD1 KD2 (human)): 28.6%; residual activity (RPS6KB1 (human)): 98%; residual activity (TAOK1 (human)): 73.1%; residual activity (TEK (human)): 97.6%
O=c1[nH]c2ccccc2n1C1CCN(Cc2ccc(-c3nc4cc5[nH]cnc5cc4nc3-c3ccccc3)cc2)CC1	102	95.3	96	108	98.4	82.9	99.2	97.9	99.8	102	106	102	94.6	102	101	109	106	91.9	101	109	residual activity (BRAF (human)): 101%; residual activity (CDK1 CCNA2 (human)): 102%; residual activity (LCK (human)): 98.2%; residual activity (MAP3K2 (human)): 92.4%; residual activity (MAP3K8 (human)): 95.2%; residual activity (MARK3 (human)): 103%; residual activity (NEK6 (human)): 98.2%; residual activity (PDPK1 (human)): 107%; residual activity (PRKCG (human)): 92.2%; residual activity (PRKCZ (human)): 102%; residual activity (PRKD2 (human)): 109%; residual activity (RPS6KA3 KD1 KD2 (human)): 96.6%; residual activity (RPS6KB1 (human)): 101%; residual activity (TAOK1 (human)): 102%; residual activity (TEK (human)): 102%
Cc1cc(Nc2nc(-c3ccccc3)nc3ccccc23)n[nH]1	149	106	51.8	41.1	43.4	39.1	93.2	90.8	97.4	90.6	98.2	48.8	10.5	72.5	40	119	96.3	67.1	20.7	79.3	residual activity (BRAF (human)): 99.5%; residual activity (CDK1 CCNA2 (human); ATP 10 µM): 95%; residual activity (LCK (human)): 75.6%; residual activity (MAP3K2 (human)): 78.4%; residual activity (MAP3K8 (human)): 105%; residual activity (MARK3 (human)): 89%; residual activity (NEK6 (human)): 93.9%; residual activity (PDPK1 (human)): 90.3%; residual activity (PRKCG (human)): 98.6%; residual activity (PRKCZ (human)): 97.1%; residual activity (PRKD2 (human)): 75.9%; residual activity (RPS6KA3 KD1 KD2 (human)): 66.1%; residual activity (RPS6KB1 (human)): 60.4%; residual activity (TAOK1 (human)): 115%; residual activity (TEK (human)): 104%
CCOc1cc2ncnc(Nc3cccc(Br)c3)c2cc1OCC	97.1	95.4	83.7	95.5	72.7	77.4	100	103	2.02	69.5	87.3	90.9	29	85.9	78.9	104	104	98.7	88.8	95.1	residual activity (BRAF (human)): 97.1%; residual activity (CDK1 CCNA2 (human); ATP 10 µM): 94.7%; residual activity (LCK (human)): 52.9%; residual activity (MAP3K2 (human)): 102%; residual activity (MAP3K8 (human)): 106%; residual activity (MARK3 (human)): 98.8%; residual activity (NEK6 (human)): 106%; residual activity (PDPK1 (human)): 96.8%; residual activity (PRKCG (human)): 83%; residual activity (PRKCZ (human)): 97.8%; residual activity (PRKD2 (human)): 86.9%; residual activity (RPS6KA3 KD1 KD2 (human)): 89.9%; residual activity (RPS6KB1 (human)): 95.8%; residual activity (TAOK1 (human)): 99.9%; residual activity (TEK (human)): 96.4%
